Laboratory results: article PMC10905675, “INX-315, a Selective CDK2 Inhibitor, Induces Cell Cycle Arrest and Senescence in Solid Tumors” (Cancer Discovery, 2023)

Experiments:
Test in all cases: SelectScreen ZLYTE
Format in all cases: biochemical
Conditions in all cases: INX-0315 at 100nM
ABL1 = biological target: T1, ABL1 (Homo sapiens, UniProt P00519)
T1 construct: purchased Thermo Fisher Scientific SelectScreen (plus Nanosyn / Reaction Biology for CDK/cyclin lines)
Method in brief: (§1)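 Kinase profiling used the provider's preestablished standard conditions. A primary screen tested INX-315 at a single 100 nmol/L in 1% DMSO. Follow-up testing used 10-point dose–response curves running from 1 µmol/L down to 0.0495 nmol/L.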

ADRBK1 (GRK2) = biological target: T2, ADRBK1 (GRK2) (Homo sapiens, UniProt P25098)
T2 construct: purchased Thermo Fisher Scientific SelectScreen (plus Nanosyn / Reaction Biology for CDK/cyclin lines)
Method in brief: as §1

AKT3 (PKB gamma) = biological target: T3, AKT3 (PKB gamma) (Homo sapiens, UniProt Q9Y243)
T3 construct: purchased Thermo Fisher Scientific SelectScreen (plus Nanosyn / Reaction Biology for CDK/cyclin lines)
Method in brief: as §1

AMPK (A1/B2/G2) = biological target: T4, AMPK (A1/B2/G2) (Homo sapiens, UniProt Q13131)
T4 construct: purchased Thermo Fisher Scientific SelectScreen (plus Nanosyn / Reaction Biology for CDK/cyclin lines)
Method in brief: as §1

AMPK (A1/B2/G3) = biological target: T5, AMPK (A1/B2/G3) (Homo sapiens, UniProt Q13131)
T5 construct: purchased Thermo Fisher Scientific SelectScreen (plus Nanosyn / Reaction Biology for CDK/cyclin lines)
Method in brief: as §1

CAMK2D (CaMKII delta) = biological target: T6, CAMK2D (CaMKII delta) (Homo sapiens, UniProt Q13557)
T6 construct: purchased Thermo Fisher Scientific SelectScreen (plus Nanosyn / Reaction Biology for CDK/cyclin lines)
Method in brief: as §1

CDKL5 = biological target: T7, CDKL5 (Homo sapiens, UniProt O76039)
T7 construct: purchased Thermo Fisher Scientific SelectScreen (plus Nanosyn / Reaction Biology for CDK/cyclin lines)
Method in brief: as §1

CSNK1A1 (CK1 alpha 1) = biological target: T8, CSNK1A1 (CK1 alpha 1) (Homo sapiens, UniProt P48729)
T8 construct: purchased Thermo Fisher Scientific SelectScreen (plus Nanosyn / Reaction Biology for CDK/cyclin lines)
Method in brief: as §1

CSNK1A1L = biological target: T9, CSNK1A1L (Homo sapiens, UniProt Q8N752)
T9 construct: purchased Thermo Fisher Scientific SelectScreen (plus Nanosyn / Reaction Biology for CDK/cyclin lines)
Method in brief: as §1

CSNK1E (CK1 epsilon) = biological target: T10, CSNK1E (CK1 epsilon) (Homo sapiens, UniProt P49674)
T10 construct: purchased Thermo Fisher Scientific SelectScreen (plus Nanosyn / Reaction Biology for CDK/cyclin lines)
Method in brief: as §1

DCAMKL1 (DCLK1) = biological target: T11, DCAMKL1 (DCLK1) (Homo sapiens, UniProt O15075)
T11 construct: purchased Thermo Fisher Scientific SelectScreen (plus Nanosyn / Reaction Biology for CDK/cyclin lines)
Method in brief: as §1

EGFR (ErbB1) L861Q = biological target: T12, EGFR (ErbB1) L861Q (Homo sapiens, UniProt P00533, L861Q)
T12 construct: purchased Thermo Fisher Scientific SelectScreen (plus Nanosyn / Reaction Biology for CDK/cyclin lines)
Method in brief: as §1

EGFR (ErbB1) T790M L858R = biological target: T13, EGFR (ErbB1) T790M L858R (Homo sapiens, UniProt P00533, L858R/T790M)
T13 construct: purchased Thermo Fisher Scientific SelectScreen (plus Nanosyn / Reaction Biology for CDK/cyclin lines)
Method in brief: as §1

EPHA1 = biological target: T14, EPHA1 (Homo sapiens, UniProt P21709)
T14 construct: purchased Thermo Fisher Scientific SelectScreen (plus Nanosyn / Reaction Biology for CDK/cyclin lines)
Method in brief: as §1

EPHB3 = biological target: T15, EPHB3 (Homo sapiens, UniProt P54753)
T15 construct: purchased Thermo Fisher Scientific SelectScreen (plus Nanosyn / Reaction Biology for CDK/cyclin lines)
Method in brief: as §1

ERBB4 (HER4) = biological target: T16, ERBB4 (HER4) (Homo sapiens, UniProt Q15303)
T16 construct: purchased Thermo Fisher Scientific SelectScreen (plus Nanosyn / Reaction Biology for CDK/cyclin lines)
Method in brief: as §1

FGFR2 = biological target: T17, FGFR2 (Homo sapiens, UniProt P21802)
T17 construct: purchased Thermo Fisher Scientific SelectScreen (plus Nanosyn / Reaction Biology for CDK/cyclin lines)
Method in brief: as §1

HCK = biological target: T18, HCK (Homo sapiens, UniProt P08631)
T18 construct: purchased Thermo Fisher Scientific SelectScreen (plus Nanosyn / Reaction Biology for CDK/cyclin lines)
Method in brief: as §1

KIT V559D V654A = biological target: T19, KIT V559D V654A (Homo sapiens, UniProt P10721, V559D/V654A)
T19 construct: purchased Thermo Fisher Scientific SelectScreen (plus Nanosyn / Reaction Biology for CDK/cyclin lines)
Method in brief: as §1

LTK (TYK1) = biological target: T20, LTK (TYK1) (Homo sapiens, UniProt P29376)
T20 construct: purchased Thermo Fisher Scientific SelectScreen (plus Nanosyn / Reaction Biology for CDK/cyclin lines)
Method in brief: as §1

MAP2K1 (MEK1) = biological target: T21, MAP2K1 (MEK1) (Homo sapiens, UniProt Q02750)
T21 construct: purchased Thermo Fisher Scientific SelectScreen (plus Nanosyn / Reaction Biology for CDK/cyclin lines)
Method in brief: as §1

MAP2K6 (MKK6) = biological target: T22, MAP2K6 (MKK6) (Homo sapiens, UniProt P52564)
T22 construct: purchased Thermo Fisher Scientific SelectScreen (plus Nanosyn / Reaction Biology for CDK/cyclin lines)
Method in brief: as §1

MAP4K2 (GCK) = biological target: T23, MAP4K2 (GCK) (Homo sapiens, UniProt Q12851)
T23 construct: purchased Thermo Fisher Scientific SelectScreen (plus Nanosyn / Reaction Biology for CDK/cyclin lines)
Method in brief: as §1

MAPK10 (JNK3) = biological target: T24, MAPK10 (JNK3) (Homo sapiens, UniProt P53779)
T24 construct: purchased Thermo Fisher Scientific SelectScreen (plus Nanosyn / Reaction Biology for CDK/cyclin lines)
Method in brief: as §1

[1] = biological target: T25, MAPK14 (p38 alpha) Direct (Homo sapiens, UniProt Q16539)
T25 construct: purchased Thermo Fisher Scientific SelectScreen (plus Nanosyn / Reaction Biology for CDK/cyclin lines)
Method in brief: as §1

MAPKAPK2 = biological target: T26, MAPKAPK2 (Homo sapiens, UniProt P49137)
T26 construct: purchased Thermo Fisher Scientific SelectScreen (plus Nanosyn / Reaction Biology for CDK/cyclin lines)
Method in brief: as §1

MAPKAPK3 = biological target: T27, MAPKAPK3 (Homo sapiens, UniProt Q16644)
T27 construct: purchased Thermo Fisher Scientific SelectScreen (plus Nanosyn / Reaction Biology for CDK/cyclin lines)
Method in brief: as §1

MET M1250T = biological target: T28, MET M1250T (Homo sapiens, UniProt P08581, M1250T)
T28 construct: purchased Thermo Fisher Scientific SelectScreen (plus Nanosyn / Reaction Biology for CDK/cyclin lines)
Method in brief: as §1

MUSK = biological target: T29, MUSK (Homo sapiens, UniProt O15146)
T29 construct: purchased Thermo Fisher Scientific SelectScreen (plus Nanosyn / Reaction Biology for CDK/cyclin lines)
Method in brief: as §1

NTRK1 (TRKA) = biological target: T30, NTRK1 (TRKA) (Homo sapiens, UniProt P04629)
T30 construct: purchased Thermo Fisher Scientific SelectScreen (plus Nanosyn / Reaction Biology for CDK/cyclin lines)
Method in brief: as §1

PAK4 = biological target: T31, PAK4 (Homo sapiens, UniProt O96013)
T31 construct: purchased Thermo Fisher Scientific SelectScreen (plus Nanosyn / Reaction Biology for CDK/cyclin lines)
Method in brief: as §1

PIM3 = biological target: T32, PIM3 (Homo sapiens, UniProt Q86V86)
T32 construct: purchased Thermo Fisher Scientific SelectScreen (plus Nanosyn / Reaction Biology for CDK/cyclin lines)
Method in brief: as §1

PLK2 = biological target: T33, PLK2 (Homo sapiens, UniProt Q9NYY3)
T33 construct: purchased Thermo Fisher Scientific SelectScreen (plus Nanosyn / Reaction Biology for CDK/cyclin lines)
Method in brief: as §1

ROCK2 = biological target: T34, ROCK2 (Homo sapiens, UniProt O75116)
T34 construct: purchased Thermo Fisher Scientific SelectScreen (plus Nanosyn / Reaction Biology for CDK/cyclin lines)
Method in brief: as §1

RPS6KA5 (MSK1) = biological target: T35, RPS6KA5 (MSK1) (Homo sapiens, UniProt O75582)
T35 construct: purchased Thermo Fisher Scientific SelectScreen (plus Nanosyn / Reaction Biology for CDK/cyclin lines)
Method in brief: as §1

SRPK2 = biological target: T36, SRPK2 (Homo sapiens, UniProt P78362)
T36 construct: purchased Thermo Fisher Scientific SelectScreen (plus Nanosyn / Reaction Biology for CDK/cyclin lines)
Method in brief: as §1

TXK = biological target: T37, TXK (Homo sapiens, UniProt P42681)
T37 construct: purchased Thermo Fisher Scientific SelectScreen (plus Nanosyn / Reaction Biology for CDK/cyclin lines)
Method in brief: as §1

T35 sequence (O75582 whole entry): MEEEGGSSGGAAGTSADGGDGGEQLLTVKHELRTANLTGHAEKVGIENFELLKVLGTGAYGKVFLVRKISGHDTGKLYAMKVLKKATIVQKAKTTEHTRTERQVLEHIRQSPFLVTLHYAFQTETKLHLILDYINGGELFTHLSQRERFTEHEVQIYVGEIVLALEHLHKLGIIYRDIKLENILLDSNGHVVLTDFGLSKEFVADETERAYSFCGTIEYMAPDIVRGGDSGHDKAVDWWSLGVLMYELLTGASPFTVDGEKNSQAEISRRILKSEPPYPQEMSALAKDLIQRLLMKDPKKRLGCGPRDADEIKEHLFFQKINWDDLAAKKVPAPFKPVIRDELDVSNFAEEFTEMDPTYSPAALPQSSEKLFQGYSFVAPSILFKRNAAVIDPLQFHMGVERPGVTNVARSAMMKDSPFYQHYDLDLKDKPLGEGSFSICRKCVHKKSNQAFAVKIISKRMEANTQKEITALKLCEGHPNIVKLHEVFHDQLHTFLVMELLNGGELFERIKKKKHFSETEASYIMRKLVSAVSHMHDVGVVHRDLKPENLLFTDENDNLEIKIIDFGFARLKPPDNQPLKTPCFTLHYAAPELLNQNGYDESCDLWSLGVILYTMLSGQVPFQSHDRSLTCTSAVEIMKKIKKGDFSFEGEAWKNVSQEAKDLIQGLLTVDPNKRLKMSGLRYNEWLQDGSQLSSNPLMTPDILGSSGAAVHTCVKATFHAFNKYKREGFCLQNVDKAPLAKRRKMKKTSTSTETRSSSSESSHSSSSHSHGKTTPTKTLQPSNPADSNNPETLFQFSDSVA
T19 sequence (P10721 26-976 V559D/V654A): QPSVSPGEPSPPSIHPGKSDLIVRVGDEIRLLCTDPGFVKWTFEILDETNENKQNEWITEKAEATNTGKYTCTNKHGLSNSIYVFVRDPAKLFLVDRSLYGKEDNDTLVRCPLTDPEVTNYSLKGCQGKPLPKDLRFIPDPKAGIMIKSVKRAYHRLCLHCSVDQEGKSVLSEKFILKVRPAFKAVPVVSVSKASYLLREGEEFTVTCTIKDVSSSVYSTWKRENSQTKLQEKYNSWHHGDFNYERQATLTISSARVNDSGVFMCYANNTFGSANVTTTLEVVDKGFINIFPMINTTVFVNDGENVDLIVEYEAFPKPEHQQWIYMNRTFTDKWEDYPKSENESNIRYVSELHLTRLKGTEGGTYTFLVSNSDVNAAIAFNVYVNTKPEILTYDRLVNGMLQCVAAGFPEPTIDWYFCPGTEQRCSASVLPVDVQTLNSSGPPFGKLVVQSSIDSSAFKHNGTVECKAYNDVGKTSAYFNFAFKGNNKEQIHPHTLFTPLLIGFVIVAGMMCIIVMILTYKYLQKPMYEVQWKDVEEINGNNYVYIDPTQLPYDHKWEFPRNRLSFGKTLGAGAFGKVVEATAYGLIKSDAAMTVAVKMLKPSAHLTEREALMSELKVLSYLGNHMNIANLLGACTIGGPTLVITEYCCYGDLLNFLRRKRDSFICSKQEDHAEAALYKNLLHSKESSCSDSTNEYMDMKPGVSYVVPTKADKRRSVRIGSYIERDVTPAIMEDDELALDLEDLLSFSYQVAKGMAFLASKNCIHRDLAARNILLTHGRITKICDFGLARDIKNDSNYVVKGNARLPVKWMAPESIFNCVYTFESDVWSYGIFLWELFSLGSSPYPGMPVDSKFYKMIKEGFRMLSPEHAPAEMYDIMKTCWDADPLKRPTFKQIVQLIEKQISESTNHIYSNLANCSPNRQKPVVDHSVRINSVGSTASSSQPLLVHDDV
T13 sequence (P00533 25-1210 T790M/L858R): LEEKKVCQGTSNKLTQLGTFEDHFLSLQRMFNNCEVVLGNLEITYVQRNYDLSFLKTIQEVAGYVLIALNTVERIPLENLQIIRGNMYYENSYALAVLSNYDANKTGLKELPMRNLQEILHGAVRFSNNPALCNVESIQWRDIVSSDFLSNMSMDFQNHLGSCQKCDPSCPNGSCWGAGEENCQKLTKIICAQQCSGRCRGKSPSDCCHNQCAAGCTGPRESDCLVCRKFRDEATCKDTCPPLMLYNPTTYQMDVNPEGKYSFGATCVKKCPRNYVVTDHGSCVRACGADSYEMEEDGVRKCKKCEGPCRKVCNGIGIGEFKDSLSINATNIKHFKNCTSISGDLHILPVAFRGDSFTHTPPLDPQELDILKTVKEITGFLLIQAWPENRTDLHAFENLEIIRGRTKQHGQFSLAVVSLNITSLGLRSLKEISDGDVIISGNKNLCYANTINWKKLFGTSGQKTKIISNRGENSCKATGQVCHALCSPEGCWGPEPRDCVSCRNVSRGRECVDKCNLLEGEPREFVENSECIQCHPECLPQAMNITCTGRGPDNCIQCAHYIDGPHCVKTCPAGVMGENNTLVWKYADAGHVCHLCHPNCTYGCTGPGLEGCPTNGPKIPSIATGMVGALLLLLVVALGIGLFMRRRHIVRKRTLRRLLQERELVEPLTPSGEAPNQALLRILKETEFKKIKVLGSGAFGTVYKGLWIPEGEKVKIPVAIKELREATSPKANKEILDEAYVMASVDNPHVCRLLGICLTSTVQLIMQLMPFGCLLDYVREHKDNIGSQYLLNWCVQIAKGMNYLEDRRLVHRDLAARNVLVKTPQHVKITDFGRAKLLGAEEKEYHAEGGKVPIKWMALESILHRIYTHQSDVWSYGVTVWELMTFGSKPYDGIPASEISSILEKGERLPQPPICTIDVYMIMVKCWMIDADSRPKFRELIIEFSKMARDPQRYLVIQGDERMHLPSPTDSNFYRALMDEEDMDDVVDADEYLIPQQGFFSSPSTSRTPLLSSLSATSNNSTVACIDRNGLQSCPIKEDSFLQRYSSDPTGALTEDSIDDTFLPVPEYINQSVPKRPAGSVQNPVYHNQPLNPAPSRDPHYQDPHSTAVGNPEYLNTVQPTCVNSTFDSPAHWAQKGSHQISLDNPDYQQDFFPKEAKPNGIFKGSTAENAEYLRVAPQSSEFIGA
T6 sequence (Q13557 whole entry): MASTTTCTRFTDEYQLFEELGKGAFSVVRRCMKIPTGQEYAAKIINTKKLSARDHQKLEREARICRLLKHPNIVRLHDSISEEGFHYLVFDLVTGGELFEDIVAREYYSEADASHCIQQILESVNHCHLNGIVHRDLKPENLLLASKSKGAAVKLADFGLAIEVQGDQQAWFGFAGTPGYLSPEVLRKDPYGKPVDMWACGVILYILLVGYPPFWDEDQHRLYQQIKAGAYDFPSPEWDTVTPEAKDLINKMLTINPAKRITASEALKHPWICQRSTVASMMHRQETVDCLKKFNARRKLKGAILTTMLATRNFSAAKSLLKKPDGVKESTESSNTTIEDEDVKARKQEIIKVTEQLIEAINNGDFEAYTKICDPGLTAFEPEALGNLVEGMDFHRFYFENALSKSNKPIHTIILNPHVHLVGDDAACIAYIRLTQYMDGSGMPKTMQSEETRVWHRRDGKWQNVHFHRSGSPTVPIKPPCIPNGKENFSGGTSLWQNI
T23 sequence (Q12851 whole entry): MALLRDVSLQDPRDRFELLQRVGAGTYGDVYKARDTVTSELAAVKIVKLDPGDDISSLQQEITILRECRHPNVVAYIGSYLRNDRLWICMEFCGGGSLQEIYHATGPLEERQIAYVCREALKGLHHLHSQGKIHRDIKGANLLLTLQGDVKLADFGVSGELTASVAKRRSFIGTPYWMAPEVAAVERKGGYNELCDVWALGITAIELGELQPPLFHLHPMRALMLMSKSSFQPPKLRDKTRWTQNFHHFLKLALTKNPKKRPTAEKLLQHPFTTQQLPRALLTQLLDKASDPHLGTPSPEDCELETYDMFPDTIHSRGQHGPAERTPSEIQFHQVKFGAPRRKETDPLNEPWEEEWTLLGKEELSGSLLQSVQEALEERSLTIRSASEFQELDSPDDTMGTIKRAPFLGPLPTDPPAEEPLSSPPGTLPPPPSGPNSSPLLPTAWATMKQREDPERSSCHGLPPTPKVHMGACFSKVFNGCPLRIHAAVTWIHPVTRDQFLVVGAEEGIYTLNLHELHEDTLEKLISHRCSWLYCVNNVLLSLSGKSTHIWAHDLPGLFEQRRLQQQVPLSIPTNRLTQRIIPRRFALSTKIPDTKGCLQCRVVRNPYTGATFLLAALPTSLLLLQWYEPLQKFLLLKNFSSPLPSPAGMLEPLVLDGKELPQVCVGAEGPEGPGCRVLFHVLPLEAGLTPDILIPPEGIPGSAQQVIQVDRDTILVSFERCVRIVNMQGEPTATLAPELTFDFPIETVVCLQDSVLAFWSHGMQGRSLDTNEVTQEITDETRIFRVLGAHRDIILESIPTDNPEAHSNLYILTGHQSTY
T36 sequence (P78362 whole entry): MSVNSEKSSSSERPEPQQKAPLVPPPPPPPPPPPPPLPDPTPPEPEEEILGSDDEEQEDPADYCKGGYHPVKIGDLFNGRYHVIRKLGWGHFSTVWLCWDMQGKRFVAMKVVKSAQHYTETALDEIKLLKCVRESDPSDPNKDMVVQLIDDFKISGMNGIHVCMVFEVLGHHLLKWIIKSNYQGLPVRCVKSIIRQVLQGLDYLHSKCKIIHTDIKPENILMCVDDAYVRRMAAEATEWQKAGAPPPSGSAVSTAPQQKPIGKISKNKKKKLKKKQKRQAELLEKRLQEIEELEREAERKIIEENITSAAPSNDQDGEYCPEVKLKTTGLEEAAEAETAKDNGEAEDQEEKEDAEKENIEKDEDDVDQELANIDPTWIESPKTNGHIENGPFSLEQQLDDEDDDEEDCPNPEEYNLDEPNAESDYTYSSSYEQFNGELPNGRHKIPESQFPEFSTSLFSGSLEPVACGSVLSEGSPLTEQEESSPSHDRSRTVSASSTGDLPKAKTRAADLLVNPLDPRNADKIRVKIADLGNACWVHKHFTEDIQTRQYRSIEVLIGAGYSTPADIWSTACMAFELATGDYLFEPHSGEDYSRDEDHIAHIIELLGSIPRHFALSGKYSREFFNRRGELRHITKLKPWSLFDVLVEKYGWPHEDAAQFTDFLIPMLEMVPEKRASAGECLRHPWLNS

Compound `NS(=O)(=O)c1ccc(Nc2ncc3cc4n(c3n2)C2(CCCCC2)C(=O)NN4)cc1` [INX-315] has an inhibition at 0.1 µM (ABL1) of 14%, an inhibition at 0.1 µM (ADRBK1 (GRK2)) of 0% and an inhibition at 0.1 µM (AKT3 (PKB gamma)) of 6%. It also gave an inhibition at 0.1 µM (AMPK (A1/B2/G2)) of 55%, an inhibition at 0.1 µM (AMPK (A1/B2/G3)) of 60% and an inhibition at 0.1 µM (CAMK2D (CaMKII delta)) of 1%. For the same compound, the inhibition at 0.1 µM (CDKL5) was -1%, the inhibition at 0.1 µM (CSNK1A1 (CK1 alpha 1)) was 5% and the inhibition at 0.1 µM (CSNK1A1L) was 4%. The inhibition at 0.1 µM (CSNK1E (CK1 epsilon)) was -5%, the inhibition at 0.1 µM (DCAMKL1 (DCLK1)) was 9% and the inhibition at 0.1 µM (EGFR (ErbB1) L861Q) was 3%. It also gave an inhibition at 0.1 µM (EGFR (ErbB1) T790M L858R) of 0%, an inhibition at 0.1 µM (EPHA1) of 22% and an inhibition at 0.1 µM (EPHB3) of 3%. It also gave an inhibition at 0.1 µM (ERBB4 (HER4)) of 2%, an inhibition at 0.1 µM (FGFR2) of 20% and an inhibition at 0.1 µM (HCK) of 10%. The inhibition at 0.1 µM (KIT V559D V654A) was 7%, the inhibition at 0.1 µM (LTK (TYK1)) was 7% and the inhibition at 0.1 µM (MAP2K1 (MEK1)) was 15%. The inhibition at 0.1 µM (MAP2K6 (MKK6)) was 3%, the inhibition at 0.1 µM (MAP4K2 (GCK)) was 0% and the inhibition at 0.1 µM (MAPK10 (JNK3)) was 11%. The inhibition at 0.1 µM [1] was 5%, the inhibition at 0.1 µM (MAPKAPK2) was 3% and the inhibition at 0.1 µM (MAPKAPK3) was 8%. For the same compound, the inhibition at 0.1 µM (MET M1250T) was 3%, the inhibition at 0.1 µM (MUSK) was 8% and the inhibition at 0.1 µM (NTRK1 (TRKA)) was 44%. It also gave an inhibition at 0.1 µM (PAK4) of 7%, an inhibition at 0.1 µM (PIM3) of 8% and an inhibition at 0.1 µM (PLK2) of 5%. The inhibition at 0.1 µM (ROCK2) was 6%, the inhibition at 0.1 µM (RPS6KA5 (MSK1)) was 8% and the inhibition at 0.1 µM (SRPK2) was 2%. The inhibition at 0.1 µM (TXK) was 7%.
